Results taken from patent US20230097009A1, “USE OF COMPOUND IN PREVENTION AND/OR TREATMENT OF PATHOGEN INFECTION IN ANIMALS” (FELICAMED BIOTECHNOLOGY CO., LTD., priority 2020, published 2023).

Experiments:
feline coronavirus = test: Treatment of a cat with recurrent wet FIP (Example 1): daily clinical observation, body weight, chest X-ray; format: in vivo; details: for body weight: 2.5 kg at enrollment (D0)
Method: A female British shorthair cat (Lele) of 2.5 kg, aged 8 month, unneutered. The cat had symptoms of increased body temperature, mental depression, decreased appetite, and increased abdominal girth in January, 2020. After 1 week, the cat was admitted. On January 18, the cat was diagnosed with feline infectious peritonitis (FIP) positive. After being treated with GS-441524 for 3 days, the cat was then administered with furosemide, Synulox®, prednisolone and itraconazole (P.O., q24h, 10 mg/kg) for 1 month. The drugs were discontinued after ascites regressed. Early in April, the disease recurred, showing decreased food intake and listlessness. […] The cat was enrolled on April 8, and was treated with the drug of the present invention at 2.0 mg/kg (SC, q24h) on days 1-14 (D1-14). Proper supportive treatments were given at the same time, including adjuvant treatment such as Moringa (a hepatoprotective drug), Lysinphirst (lysine) and Doctor Dolittle® (lactoferrin).
The pharmaceutically active compound described above is a pure powder have the following structure. The compound was added to a 0.9% normal saline (50 mL of endotoxin-free water and 0.45 g of NaCl), and the mixture was uniformly mixed and filtered through a filter membrane to give a clarified solution. The diluted compound was stored in a plastic-sealed sterile vial, stored in a refrigerator at 4° C., slowly heated to room temperature before injection, and administered using a disposable syringe. The injection ranged across the back, starting from 2 cm posterior to the scapula to the middle of the lumbar spine, half of the distance of the adjacent chest to flank.
The treatment was given by injection in the morning every day. […]
The hydrothorax completely regressed since about 7 days after the treatment. The body weight increased by 9% during and after the treatment.

[1] = system: feline infectious peritonitis virus; test: Clinical survival of cats with clinically confirmed FIP, treatment group vs control group (Example 2); format: in vivo, cat; details: 7 treated vs 8 control cats with FIP; GS-441524 pre-treatment 3 days; 2.0 mg/kg SC q24h D1-D14; death or neurological symptoms = clinical death; 14 days
Source text: A total of 15 cats with clinically confirmed FIP were enrolled, with hydrothorax/ascites, positive CT value by PCR, and no neurological symptoms. 8 cats were allocated into the control group, and 7 cats were allocated into the treatment group.
The groups were pre-treated with GS-441524 for 3 days. For the control group, necessary supportive treatment was given on D1—D14.
The occurrence of death or neurological symptoms was judged as clinical death, and the clinical survival curve was plotted after 14 days.
The Log Rank (Mantel-Cox) and Breslow (Generalized Wilcoxon) methods were used for validity test, and both methods indicated a significant difference (P<0.05). The above description is only for the purpose of illustrating the preferred example of the present invention, and is not intended to limit the scope of the present invention. Any modifications, equivalents and the like made without departing from the spirit and principle of the present invention should be included in the protection scope of the present invention.

[2] = D1, cat with FIP, 2.0 mg/kg SC q24h
[3] = D2, cat with FIP, 2.0 mg/kg SC q24h
[4] = D3, cat with FIP, 2.0 mg/kg SC q24h
[5] = D4, cat with FIP, 2.0 mg/kg SC q24h
[6] = D5, cat with FIP, 2.0 mg/kg SC q24h
[7] = D6, cat with FIP, 2.0 mg/kg SC q24h
[8] = D7, cat with FIP, 2.0 mg/kg SC q24h
[9] = D8, cat with FIP, 2.0 mg/kg SC q24h
[10] = D9, cat with FIP, 2.0 mg/kg SC q24h
[11] = D10, cat with FIP, 2.0 mg/kg SC q24h
[12] = D11, cat with FIP, 2.0 mg/kg SC q24h
[13] = D12, cat with FIP, 2.0 mg/kg SC q24h
[14] = D13, cat with FIP, 2.0 mg/kg SC q24h
[15] = D14, cat with FIP, 2.0 mg/kg SC q24h

CN1CCC(c2ncc(-c3cnc(N)c(OCc4cccc(C#CC(C)(C)O)c4)c3)s2)CC1 [the drug of the present invention, 4-(3-(((2-amino-5-(2-(1-methylpiperidin-4-yl)thiazol-5-yl)pyridin-3-yl)oxy)methyl)phenyl)-2-methylbut-3-yn-2-ol]
Body temperature Afternoon (feline coronavirus; [2]): 38.6 °C | Defecation condition (feline coronavirus; [2]): Normal | Respiratory state (feline coronavirus; [2]): Normal | Body temperature Afternoon (feline coronavirus; [3]): 38.1 °C | Defecation condition (feline coronavirus; [3]): Normal | Respiratory state (feline coronavirus; [3]): Normal | Food intake (feline coronavirus; D2, cat with FIP, 2.0 mg/kg SC q24h, D0 Decreased intake - 3): Improved - 4 | Mental state (feline coronavirus; D2, cat with FIP, 2.0 mg/kg SC q24h, D0 Listless - 3): Improved - 4 | Body temperature Afternoon (feline coronavirus; [4]): 38 °C | Defecation condition (feline coronavirus; [4]): Normal | Respiratory state (feline coronavirus; [4]): Normal | Food intake (feline coronavirus; D3, cat with FIP, 2.0 mg/kg SC q24h, D0 Decreased intake - 3): Good - 5 | Mental state (feline coronavirus; D3, cat with FIP, 2.0 mg/kg SC q24h, D0 Listless - 3): Good - 5 | Body temperature Afternoon (feline coronavirus; [5]): 38.3 °C | Defecation condition (feline coronavirus; [5]): Normal | Food intake (feline coronavirus; [5]): Good | Mental state (feline coronavirus; [5]): Good | Respiratory state (feline coronavirus; [5]): Normal | Body temperature Afternoon (feline coronavirus; [6]): 38.3 °C | Defecation condition (feline coronavirus; [6]): Normal | Food intake (feline coronavirus; [6]): Good | Mental state (feline coronavirus; [6]): Good | Respiratory state (feline coronavirus; [6]): Normal | Body temperature Afternoon (feline coronavirus; [7]): 38.3 °C | Defecation condition (feline coronavirus; [7]): Normal | Food intake (feline coronavirus; [7]): Good | Mental state (feline coronavirus; [7]): Good | Respiratory state (feline coronavirus; [7]): Normal | Body temperature Afternoon (feline coronavirus; [8]): 38.1 °C | Defecation condition (feline coronavirus; [8]): Normal | Food intake (feline coronavirus; [8]): Good | Mental state (feline coronavirus; [8]): Good | Respiratory state (feline coronavirus; [8]): Normal | body weight (feline coronavirus; [8]): 2.75 kg | Body temperature Afternoon (feline coronavirus; [9]): 38 °C | Defecation condition (feline coronavirus; [9]): Normal | Food intake (feline coronavirus; [9]): Good | Mental state (feline coronavirus; [9]): Good | Respiratory state (feline coronavirus; [9]): Normal | Body temperature Afternoon (feline coronavirus; [10]): 38.2 °C | Defecation condition (feline coronavirus; [10]): Normal | Food intake (feline coronavirus; [10]): Good | Mental state (feline coronavirus; [10]): Good | Respiratory state (feline coronavirus; [10]): Normal | Body temperature Afternoon (feline coronavirus; [11]): 38.3 °C | Defecation condition (feline coronavirus; [11]): Normal | Food intake (feline coronavirus; [11]): Good | Mental state (feline coronavirus; [11]): Good | Respiratory state (feline coronavirus; [11]): Normal | Body temperature Afternoon (feline coronavirus; [12]): 38.4 °C | Defecation condition (feline coronavirus; [12]): Normal | Food intake (feline coronavirus; [12]): Good | Mental state (feline coronavirus; [12]): Good | Respiratory state (feline coronavirus; [12]): Normal | Body temperature Afternoon (feline coronavirus; [13]): 38.5 °C | Defecation condition (feline coronavirus; [13]): Normal | Food intake (feline coronavirus; [13]): Good | Mental state (feline coronavirus; [13]): Good | Respiratory state (feline coronavirus; [13]): Normal | Body temperature Afternoon (feline coronavirus; [14]): 38.5 °C | Body temperature Morning (feline coronavirus; [14]): 38.9 °C | Defecation condition (feline coronavirus; [14]): Normal | Food intake (feline coronavirus; [14]): Good | Mental state (feline coronavirus; [14]): Good | Respiratory state (feline coronavirus; [14]): Normal | Body temperature Afternoon (feline coronavirus; [15]): 38.4 °C | Body temperature Morning (feline coronavirus; [15]): 38.4 °C | Defecation condition (feline coronavirus; [15]): Normal | Food intake (feline coronavirus; [15]): Good | Mental state (feline coronavirus; [15]): Good | Respiratory state (feline coronavirus; [15]): Normal | body weight (feline coronavirus; [15]): 2.75 kg | clinical response (appetite, mental state, weight) (feline coronavirus; after 2 weeks of treatment, cat with FIP, 2.0 mg/kg SC q24h): remarkable clinical response | body weight increase during and after the treatment (feline coronavirus; cat with FIP, 2.0 mg/kg SC q24h D1-14): 9% | body temperature maintained throughout the treatment (feline coronavirus; cat with FIP, no fever at enrollment, 2.0 mg/kg SC q24h D1-14): 38-38.5 °C | time after which the hydrothorax completely regressed (feline coronavirus; cat with wet FIP (chest), 2.0 mg/kg SC q24h, chest X-ray): about 7 days | clinical survival vs control group, P (Log Rank (Mantel-Cox) and Breslow (Generalized Wilcoxon)) [1]: < 0.05
